Assay results: paper PMC12529750 (Emerging Microbes & Infections, 2025)

Columns and labels:
Assay type in all cases: cell-based
[1] = system: SARS-CoV-2 ENS-EV1 (M49L and S144A in Mpro)
[2] = system: SARS-CoV-2 ENS-EV2 (M49L, S144A and T169I in Mpro)
SARS-CoV-2 M49L variant = system: SARS-CoV-2 M49L variant
SARS-CoV-2 S144A variant = system: SARS-CoV-2 S144A variant
[3] = system: SARS-CoV-2 M49L+S144A variant
[4] = system: SARS-CoV-2 M49L+E166A variant
SARS-CoV-2 T169I variant = system: SARS-CoV-2 T169I variant
[5] = system: SARS-CoV-2 M49L+S144A+T169I variant
[6] = system: SARS-CoV-2 L50F+E166V variant
[7] = system: SARS-CoV-2 NIR-EV L50F+E166V
SARS-CoV-2 E166G variant = system: SARS-CoV-2 E166G variant
SARS-CoV-2 E166H variant = system: SARS-CoV-2 E166H variant
SARS-CoV-2 E166Q variant = system: SARS-CoV-2 E166Q variant
SARS-CoV-2 E166S variant = system: SARS-CoV-2 E166S variant
[8] = system: SARS-CoV-2 replicon with M49L + S144A + T169I
[9] = system: SARS-CoV-2 replicon with M49L + E166A
SARS-CoV-2 E166L variant = system: SARS-CoV-2 E166L variant
[10] = system: SARS-CoV-2 replicon with E166A

Compound	Fold resistance, highest in VeroE6 or A549-hACE2 cells [1]	Fold resistance, highest in VeroE6 or A549-hACE2 cells [2]	Fold resistance, highest in VeroE6 or A549-hACE2 cells (SARS-CoV-2 M49L variant)	Fold resistance, highest in VeroE6 or A549-hACE2 cells (SARS-CoV-2 S144A variant)	Fold resistance, highest in VeroE6 or A549-hACE2 cells [3]	Fold resistance, highest in VeroE6 or A549-hACE2 cells [4]	Fold resistance, highest in VeroE6 or A549-hACE2 cells (SARS-CoV-2 T169I variant)	Fold resistance, highest in VeroE6 or A549-hACE2 cells [5]	Fold resistance, highest in VeroE6 or A549-hACE2 cells [6]	Fold resistance, highest in VeroE6 or A549-hACE2 cells [7]	Fold resistance, highest in VeroE6 or A549-hACE2 cells (SARS-CoV-2 E166G variant)	Fold resistance, highest in VeroE6 or A549-hACE2 cells (SARS-CoV-2 E166H variant)	Fold resistance, highest in VeroE6 or A549-hACE2 cells (SARS-CoV-2 E166Q variant)	Fold resistance, highest in VeroE6 or A549-hACE2 cells (SARS-CoV-2 E166S variant)	Resistance of replicon (% RLU in treated cultures) [8]	Resistance of replicon (% RLU in treated cultures) [9]	Fold resistance, highest in VeroE6 or A549-hACE2 cells (SARS-CoV-2 E166L variant)	Resistance of replicon (% RLU in treated cultures) [10]
Cn1cnc(Cn2c(=O)[nH]/c(=N\c3cc4cn(C)nc4cc3Cl)n(Cc3cc(F)c(F)cc3F)c2=O)n1 [ENS, Ensitrelvir]	up to 110 fold	up to 280 fold	up to 71 fold	up to 21 fold	up to 290 fold	up to 180 fold	up to 4.8 fold	up to 660 fold	up to 14 fold	up to 36 fold	< 5 fold	> 5 fold	< 5 fold	> 5 fold	highest resistance	lower resistance	–	–
CC(C)(C)[C@H](NC(=O)C(F)(F)F)C(=O)N1C[C@H]2[C@@H]([C@H]1C(=O)N[C@H](C#N)C[C@@H]1CCNC1=O)C2(C)C [NIR, Nirmatrelvir]	< 10 fold	< 10 fold	–	–	–	–	–	–	–	–	< 5 fold	–	< 5 fold	> 5 fold	–	relatively high resistance	> 5 fold	relatively high resistance
